Results reported in patent EP4691482A1, “LONG-ACTING CALCITONIN ANALOG” (Chengdu Aoda Biotechnology Co., Ltd., priority 2023, dated 2024).

What follows are molecules tested against T1, calcitonin receptors (CTR) (Homo sapiens, UniProt P30988) (assay: cAMP determination (HTRF, cAMP Dynamic 2 Kit) in cAMP Hunter HEK293-CT-R Gs cell line). Conditions: HEK293 cell line stably expressing CT-R; intracellular cAMP, HTRF.
T1 construct: expressed in transfected cells; host or cells: cAMP Hunter HEK293-CT-R Gs cell line (HEK293, stably transfected)
T1 sequence (P30988 25-474): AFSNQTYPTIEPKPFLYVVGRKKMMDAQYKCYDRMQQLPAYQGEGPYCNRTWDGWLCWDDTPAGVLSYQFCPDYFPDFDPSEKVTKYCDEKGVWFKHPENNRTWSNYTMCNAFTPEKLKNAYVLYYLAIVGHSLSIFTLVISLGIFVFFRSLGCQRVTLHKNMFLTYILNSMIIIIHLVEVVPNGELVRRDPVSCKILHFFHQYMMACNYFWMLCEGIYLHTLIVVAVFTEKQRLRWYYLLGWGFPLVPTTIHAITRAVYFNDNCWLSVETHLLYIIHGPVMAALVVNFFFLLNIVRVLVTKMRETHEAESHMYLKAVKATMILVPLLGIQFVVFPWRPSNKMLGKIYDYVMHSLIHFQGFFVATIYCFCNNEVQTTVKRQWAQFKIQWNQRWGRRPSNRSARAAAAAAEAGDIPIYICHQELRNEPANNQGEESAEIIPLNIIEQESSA
Assay type: cell-based
From the text: Upon activation by a ligand, Gas-coupled GPCRs can upregulate intracellular cAMP level, and cAMP, as a second messenger, can mediate a series of cellular responses. The cAMP Hunter HEK293-CT-R Gs cell line, which overexpresses Gas-coupled calcitonin receptors (CTR), was used. The binding of calcitonin (or an analog thereof) to the overexpressed CTR upregulates intracellular cAMP level. The amount of intracellular cAMP produced after activation by the calcitonin (or an analog thereof) was detected using a cAMP Dynamic 2 Kit to evaluate the biological activity of the calcitonin (or an analog thereof). HEK293 cell line stably expressing CT-R was used. Stably transfected cells were stimulated with various concentrations of agonists. The time-resolved fluorescence resonance energy signal from the cells after stimulation with different doses was measured using HTRF technology, from which the biological activity of the agonist was subsequently calculated.
In the case of CC(C)C[C@H](NC(=O)[C@H](CCCCN)NC(=O)CNC(=O)[C@H](CC(C)C)NC(=O)[C@@H](NC(=O)[C@@H]1CSSC[C@H](N)C(=O)N[C@@H](CO)C(=O)N[C@@H](CC(N)=O)C(=O)N[C@@H](CC(C)C)C(=O)N[C@@H](CO)C(=O)N[C@@H]([C@@H](C)O)C(=O)N1)C(C)C)C(=O)N[C@@H](CO)C(=O)N[C@@H](CCC(N)=O)C(=O)N[C@@H](CCC(=O)O)C(=O)N[C@@H](CC(C)C)C(=O)N[C@@H](Cc1c[nH]cn1)C(=O)N[C@@H](CCCCNC(=O)CNC(=O)CNC(=O)[C@H](CO)NC(=O)CNC(=O)[C@H](CO)NC(=O)CNC(=O)[C@H](CO)NC(=O)CNC(=O)CC[C@H](NC(=O)CCCCCCCCCCCCCCCCCCC(=O)O)C(=O)O)C(=O)N[C@@H](CC(C)C)C(=O)N[C@@H](CCC(N)=O)C(=O)N[C@H](C(=O)N[C@@H](Cc1ccc(O)cc1)C(=O)N1CCC[C@H]1C(=O)N[C@@H](CCCNC(=N)N)C(=O)N[C@H](C(=O)N[C@@H](CC(N)=O)C(=O)N[C@H](C(=O)NCC(=O)N[C@@H](CO)C(=O)NCC(=O)N[C@H](C(=O)N1CCC[C@H]1C(N)=O)[C@@H](C)O)[C@@H](C)O)[C@@H](C)O)[C@@H](C)O [Compound 9], the EC50 is reported as 4.1 pM. CC(C)C[C@H](NC(=O)[C@H](CCCCN)NC(=O)CNC(=O)[C@H](CC(C)C)NC(=O)[C@@H](NC(=O)[C@@H]1CSSC[C@H](N)C(=O)N[C@@H](CO)C(=O)N[C@@H](CC(N)=O)C(=O)N[C@@H](CC(C)C)C(=O)N[C@@H](CO)C(=O)N[C@@H]([C@@H](C)O)C(=O)N1)C(C)C)C(=O)N[C@@H](CO)C(=O)N[C@@H](CCC(N)=O)C(=O)N[C@@H](CCC(=O)O)C(=O)N[C@@H](CC(C)C)C(=O)N[C@@H](Cc1c[nH]cn1)C(=O)N[C@@H](CCCCNC(=O)CNC(=O)CNC(=O)CNC(=O)CNC(=O)CC[C@H](NC(=O)CCCCCCCCCCCCCCCCCCC(=O)O)C(=O)O)C(=O)N[C@@H](CC(C)C)C(=O)N[C@@H](CCC(N)=O)C(=O)N[C@H](C(=O)N[C@@H](Cc1ccc(O)cc1)C(=O)N1CCC[C@H]1C(=O)N[C@@H](CCCNC(=N)N)C(=O)N[C@H](C(=O)N[C@@H](CC(N)=O)C(=O)N[C@H](C(=O)NCC(=O)N[C@@H](CO)C(=O)NCC(=O)N[C@H](C(=O)N1CCC[C@H]1C(N)=O)[C@@H](C)O)[C@@H](C)O)[C@@H](C)O)[C@@H](C)O [Compound 13] showed an EC50 of 3.5 pM. CC(C)C[C@H](NC(=O)[C@H](CCCCN)NC(=O)CNC(=O)[C@H](CC(C)C)NC(=O)[C@@H](NC(=O)[C@@H]1CSSC[C@H](N)C(=O)N[C@@H](CO)C(=O)N[C@@H](CC(N)=O)C(=O)N[C@@H](CC(C)C)C(=O)N[C@@H](CO)C(=O)N[C@@H]([C@@H](C)O)C(=O)N1)C(C)C)C(=O)N[C@@H](CO)C(=O)N[C@@H](CCC(N)=O)C(=O)N[C@@H](CCC(=O)O)C(=O)N[C@@H](CC(C)C)C(=O)N[C@@H](Cc1c[nH]cn1)C(=O)N[C@@H](CCCCNC(=O)CNC(=O)CNC(=O)CC[C@H](NC(=O)CCCCCCCCCCCCCCCCCCC(=O)O)C(=O)O)C(=O)N[C@@H](CC(C)C)C(=O)N[C@@H](CCC(N)=O)C(=O)N[C@H](C(=O)N[C@@H](Cc1ccc(O)cc1)C(=O)N1CCC[C@H]1C(=O)N[C@@H](CCCNC(=N)N)C(=O)N[C@H](C(=O)N[C@@H](CC(N)=O)C(=O)N[C@H](C(=O)NCC(=O)N[C@@H](CO)C(=O)NCC(=O)N[C@H](C(=O)N1CCC[C@H]1C(N)=O)[C@@H](C)O)[C@@H](C)O)[C@@H](C)O)[C@@H](C)O [Compound 11] showed an EC50 of 4.3 pM. Work on CC(C)C[C@H](NC(=O)[C@H](CCCCN)NC(=O)CNC(=O)[C@H](CC(C)C)NC(=O)[C@@H](NC(=O)[C@@H]1CSSC[C@H](N)C(=O)N[C@@H](CO)C(=O)N[C@@H](CC(N)=O)C(=O)N[C@@H](CC(C)C)C(=O)N[C@@H](CO)C(=O)N[C@@H]([C@@H](C)O)C(=O)N1)C(C)C)C(=O)N[C@@H](CO)C(=O)N[C@@H](CCC(N)=O)C(=O)N[C@@H](CCC(=O)O)C(=O)N[C@@H](CC(C)C)C(=O)N[C@@H](Cc1c[nH]cn1)C(=O)N[C@@H](CCCCNC(=O)COCCOCCNC(=O)COCCOCCNC(=O)CC[C@H](NC(=O)CCCCCCCCCCCCCCCCCCCCC(=O)O)C(=O)O)C(=O)N[C@@H](CC(C)C)C(=O)N[C@@H](CCC(N)=O)C(=O)N[C@H](C(=O)N[C@@H](Cc1ccc(O)cc1)C(=O)N1CCC[C@H]1C(=O)N[C@@H](CCCNC(=N)N)C(=O)N[C@H](C(=O)N[C@@H](CC(N)=O)C(=O)N[C@H](C(=O)NCC(=O)N[C@@H](CO)C(=O)NCC(=O)N[C@H](C(=O)N1CCC[C@H]1C(N)=O)[C@@H](C)O)[C@@H](C)O)[C@@H](C)O)[C@@H](C)O [Compound 21, Cys-Ser-Asn-Leu-Ser-Thr-Cys-Val-Leu-Gly-Lys-Leu-Ser-Gln-Glu-Leu-His-Lys(AEEA-AEEA-γGlu-docosanedioic acid)-Leu-Gln-Thr-Tyr-Pro -Arg-Thr-Asn-Thr-Gly-Ser-Gly-Thr-Pro-NH2] yielded an EC50 of 3.5 pM. For CC(C)C[C@H](NC(=O)[C@H](CCCCN)NC(=O)CNC(=O)[C@H](CC(C)C)NC(=O)[C@@H](NC(=O)[C@@H]1CSSC[C@H](N)C(=O)N[C@@H](CO)C(=O)N[C@@H](CC(N)=O)C(=O)N[C@@H](CC(C)C)C(=O)N[C@@H](CO)C(=O)N[C@@H]([C@@H](C)O)C(=O)N1)C(C)C)C(=O)N[C@@H](CO)C(=O)N[C@@H](CCC(N)=O)C(=O)N[C@@H](CCC(=O)O)C(=O)N[C@@H](CC(C)C)C(=O)N[C@@H](Cc1c[nH]cn1)C(=O)N[C@@H](CCCCNC(=O)CNC(=O)CNC(=O)CNC(=O)CNC(=O)CNC(=O)CNC(=O)CC[C@H](NC(=O)CCCCCCCCCCCCCCCCCCC(=O)O)C(=O)O)C(=O)N[C@@H](CC(C)C)C(=O)N[C@@H](CCC(N)=O)C(=O)N[C@H](C(=O)N[C@@H](Cc1ccc(O)cc1)C(=O)N1CCC[C@H]1C(=O)N[C@@H](CCCNC(=N)N)C(=O)N[C@H](C(=O)N[C@@H](CC(N)=O)C(=O)N[C@H](C(=O)NCC(=O)N[C@@H](CO)C(=O)NCC(=O)N[C@H](C(=O)N1CCC[C@H]1C(N)=O)[C@@H](C)O)[C@@H](C)O)[C@@H](C)O)[C@@H](C)O [Compound 15], the EC50 was 6.5 pM. Work on CC(C)C[C@H](NC(=O)[C@H](CCCCN)NC(=O)CNC(=O)[C@H](CC(C)C)NC(=O)[C@@H](NC(=O)[C@@H]1CSSC[C@H](N)C(=O)N[C@@H](CO)C(=O)N[C@@H](CC(N)=O)C(=O)N[C@@H](CC(C)C)C(=O)N[C@@H](CO)C(=O)N[C@@H]([C@@H](C)O)C(=O)N1)C(C)C)C(=O)N[C@@H](CO)C(=O)N[C@@H](CCC(N)=O)C(=O)N[C@@H](CCC(=O)O)C(=O)N[C@@H](CC(C)C)C(=O)N[C@@H](Cc1c[nH]cn1)C(=O)N[C@@H](CCCCNC(=O)COCCOCCNC(=O)COCCOCCNC(=O)CC[C@H](NC(=O)CCCCCCCCCCCCCCCCC(=O)O)C(=O)O)C(=O)N[C@@H](CC(C)C)C(=O)N[C@@H](CCC(N)=O)C(=O)N[C@H](C(=O)N[C@@H](Cc1ccc(O)cc1)C(=O)N1CCC[C@H]1C(=O)N[C@@H](CCCNC(=N)N)C(=O)N[C@H](C(=O)N[C@@H](CC(N)=O)C(=O)N[C@H](C(=O)NCC(=O)N[C@@H](CO)C(=O)NCC(=O)N[C@H](C(=O)N1CCC[C@H]1C(N)=O)[C@@H](C)O)[C@@H](C)O)[C@@H](C)O)[C@@H](C)O [Compound 19, Cys-Ser-Asn-Leu-Ser-Thr-Cys-Val-Leu-Gly-Lys-Leu-Ser-Gln-Glu-Leu-His-Lys(AEEA-AEEA-γGlu-octadecanedioic acid)-Leu-Gln-Thr-Tyr-P ro-Arg-Thr-Asn-Thr-Gly-Ser-Gly-Thr-Pro-NH2] yielded an EC50 of 3.7 pM.

Same assay, conditions: relative to Salmon Calcitonin = 100.0; HEK293 CT-R cAMP
For CC(C)C[C@H](NC(=O)[C@H](CCCCN)NC(=O)CNC(=O)[C@H](CC(C)C)NC(=O)[C@@H](NC(=O)[C@@H]1CSSC[C@H](N)C(=O)N[C@@H](CO)C(=O)N[C@@H](CC(N)=O)C(=O)N[C@@H](CC(C)C)C(=O)N[C@@H](CO)C(=O)N[C@@H]([C@@H](C)O)C(=O)N1)C(C)C)C(=O)N[C@@H](CO)C(=O)N[C@@H](CCC(N)=O)C(=O)N[C@@H](CCC(=O)O)C(=O)N[C@@H](CC(C)C)C(=O)N[C@@H](Cc1c[nH]cn1)C(=O)N[C@@H](CCCCNC(=O)COCCOCCOCCNC(=O)CC[C@H](NC(=O)CCCCCCCCCCCCCCCCCCCCC(=O)O)C(=O)O)C(=O)N[C@@H](CC(C)C)C(=O)N[C@@H](CCC(N)=O)C(=O)N[C@H](C(=O)N[C@@H](Cc1ccc(O)cc1)C(=O)N1CCC[C@H]1C(=O)N[C@@H](CCCNC(=N)N)C(=O)N[C@H](C(=O)N[C@@H](CC(N)=O)C(=O)N[C@H](C(=O)NCC(=O)N[C@@H](CO)C(=O)NCC(=O)N[C@H](C(=O)N1CCC[C@H]1C(N)=O)[C@@H](C)O)[C@@H](C)O)[C@@H](C)O)[C@@H](C)O [Compound 20, Cys-Ser-Asn-Leu-Ser-Thr-Cys-Val-Leu-Gly-Lys-Leu-Ser-Gln-Glu-Leu-His-Lys(PEG3CH2CO-γGlu-docosanedioic acid)-Leu-Gln-Thr-Tyr-Pro-Arg-Thr-Asn-Thr-Gly-Ser-Gly-Thr-Pro-NH2], the “Relative Activity%” value was 296.9%.
